Test results: ChEMBL document CHEMBL5728291, “Pyrazole MAGL inhibitors” (2021)

Target: T1, Monoglyceride lipase (Homo sapiens, UniProt Q99685)
T1 sequence (Q99685 whole entry): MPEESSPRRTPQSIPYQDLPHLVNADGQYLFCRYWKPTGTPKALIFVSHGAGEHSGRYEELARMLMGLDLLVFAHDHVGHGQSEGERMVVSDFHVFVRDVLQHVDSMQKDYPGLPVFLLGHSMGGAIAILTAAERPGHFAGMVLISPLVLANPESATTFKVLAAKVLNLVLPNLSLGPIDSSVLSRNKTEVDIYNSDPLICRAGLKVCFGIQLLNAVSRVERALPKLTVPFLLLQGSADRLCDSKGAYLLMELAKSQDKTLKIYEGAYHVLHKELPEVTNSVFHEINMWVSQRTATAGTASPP
Test: In Vitro Competitive Activity-Based Protein Profiling: Proteomes (mouse brain membrane fraction for mouse assays; human prefrontal cortex membrane fractions for human assays) (50 mL, 1.0 mg/mL total protein concentration) were preincubated with varying concentrations of inhibitors at 37° C. After 30 min, FP-Rh (1.0 mL, 50 mM in DMSO) was added and the mixture was incubated for another 30 min at 37° C.

## O=C(O)c1ccn(C(=O)N2C[C@H]3C[C@H](Oc4cc(Cl)ccc4C(F)(F)F)C[C@H]3C2)n1
  IC50: < 100 nM
